Measurements taken from ChEMBL document CHEMBL4138197, “Design, synthesis and pharmacological evaluation of N-(5-chloro-2,4-dihydroxybenzoyl)-(R)-N-arylmethyl-1,2,3,4-tetrahydro-3-isoquinolinecarboxamides as potent Hsp90 inhibitors” (Eur J Med Chem, 2018).
Activity calls are given as the source filed them. The rule behind the calls is not given here.

Columns and labels:
A549 [1] = experiment: Antiproliferative activity against human A549 cells after 72 hrs by SRB assay; type: functional, cell-based; settings: A549, 72 h
MDA-MB-231 = experiment: Antiproliferative activity against human MDA-MB-231 cells after 72 hrs by SRB assay; type: functional, cell-based; settings: MDA-MB-231, 72 h
[2] = biological target: Heat shock protein HSP 90-alpha (Homo sapiens) (UniProt P07900); experiment: Binding affinity to HSP90alpha in HEK293T cells assessed as induction of thermal stabilisation of HSP90alpha at 10 uM pre-incubated for 3 hrs followed by heating at 37 to 63 degC for 3 mins then subsequent cooling for 3 mins by Western blot-based CESTA relative to beta actin; type: cell-based
[3] = biological target: Heat shock protein HSP 90-alpha (Homo sapiens) (UniProt P07900); experiment: Binding affinity to HSP90alpha in HEK293T cells assessed as induction of thermal stabilisation of HSP90alpha pre-incubated for 3 hrs followed by heating at 37 to 63 degC for 3 mins then subsequent cooling for 3 mins by Western blot-based CESTA relative to beta actin; type: cell-based
[4] = biological target: Heat shock protein HSP 90-alpha (Homo sapiens) (UniProt P07900); experiment: Inhibition of HSP90alpha in human MDA-MB-453 cells assessed as down-regulation of EGFR levels by Western blot analysis; type: cell-based
[5] = biological target: Heat shock protein HSP 90-alpha (Homo sapiens) (UniProt P07900); experiment: Inhibition of HSP90alpha in human MDA-MB-453 cells assessed as down-regulation of cdc2 levels by Western blot analysis; type: cell-based
[6] = biological target: Heat shock protein HSP 90-alpha (Homo sapiens) (UniProt P07900); experiment: Inhibition of HSP90alpha in human MDA-MB-453 cells assessed as down-regulation of CDK4 levels by Western blot analysis; type: cell-based
[7] = biological target: Heat shock protein HSP 90-alpha (Homo sapiens) (UniProt P07900); experiment: Inhibition of HSP90alpha in human MDA-MB-453 cells assessed as down-regulation of CHK1 levels by Western blot analysis; type: cell-based
[8] = biological target: Heat shock protein HSP 90-alpha (Homo sapiens) (UniProt P07900); experiment: Inhibition of HSP90alpha in human MDA-MB-453 cells assessed as down-regulation of C-RAF levels by Western blot analysis; type: cell-based
[9] = biological target: Heat shock protein HSP 90-alpha (Homo sapiens) (UniProt P07900); experiment: Inhibition of HSP90alpha in human MDA-MB-453 cells assessed as down-regulation of AKT levels by Western blot analysis; type: cell-based
[10] = biological target: Heat shock protein HSP 90-alpha (Homo sapiens) (UniProt P07900); experiment: Inhibition of HSP90alpha in human MDA-MB-453 cells assessed as upregulation of HSP70 levels by Western blot analysis; type: cell-based
MDA-MB-453 [11] = experiment: Cell cycle arrest in human MDA-MB-453 cells assessed as reduction in accumulation at S phase at 0.25 to 1 uM after 12 hrs by propidium iodide-staining based flow cytometry; type: functional
SH-SY5Y = experiment: Antiproliferative activity against human SH-SY5Y cells by SRB assay; type: functional, cell-based
U-251 = experiment: Antiproliferative activity against human U251 cells by SRB assay; type: functional, cell-based
HCT-116 = experiment: Antiproliferative activity against human HCT116 cells by SRB assay; type: functional, cell-based
HeLa = experiment: Antiproliferative activity against human HeLa cells by SRB assay; type: functional, cell-based
NCI-H1299 = experiment: Antiproliferative activity against human NCI-H1299 cells by SRB assay; type: functional, cell-based
A549 [12] = experiment: Antiproliferative activity against human A549 cells by SRB assay; type: functional, cell-based
HepG2 = experiment: Antiproliferative activity against human HepG2 cells by SRB assay; type: functional, cell-based
SK-OV-3 = experiment: Antiproliferative activity against human SKOV3 cells by SRB assay; type: functional, cell-based
PC-3 = experiment: Antiproliferative activity against human PC3 cells by SRB assay; type: functional, cell-based
MCF7 = experiment: Antiproliferative activity against human MCF7 cells by SRB assay; type: functional, cell-based
MDA-MB-453 [13] = experiment: Induction of apoptosis in human MDA-MB-453 cells assessed as early apoptotic cells at 0.25 uM after 48 hrs by Annexin V-FITC/propidium iodide-staining based flow cytometry (reference value: 1.65%); type: functional
MDA-MB-453 [14] = experiment: Induction of apoptosis in human MDA-MB-453 cells assessed as late apoptotic cells at 1 uM after 48 hrs by Annexin V-FITC/propidium iodide-staining based flow cytometry (reference value: 3.40%); type: functional
MDA-MB-453 [15] = experiment: Induction of apoptosis in human MDA-MB-453 cells assessed as late apoptotic cells at 4 uM after 48 hrs by Annexin V-FITC/propidium iodide-staining based flow cytometry (reference value: 3.40%); type: functional
MDA-MB-453 [16] = experiment: Induction of apoptosis in human MDA-MB-453 cells assessed as necrotic cells at 4 uM after 48 hrs by Annexin V-FITC/propidium iodide-staining based flow cytometry (reference value: 0.01%); type: functional
MDA-MB-453 [17] = experiment: Induction of apoptosis in human MDA-MB-453 cells assessed as increase in cleaved caspase3 activity at 0.25 uM up to 48 hrs by Western blot analysis; type: functional, cell-based
MDA-MB-453 [18] = experiment: Induction of apoptosis in human MDA-MB-453 cells assessed as increase in cleaved caspase7 activity at 0.25 uM up to 48 hrs by Western blot analysis; type: functional, cell-based
MDA-MB-453 [19] = experiment: Induction of apoptosis in human MDA-MB-453 cells assessed as increase in cleaved PARP activity at 0.25 uM up to 48 hrs by Western blot analysis; type: functional, cell-based
MDA-MB-453 [20] = experiment: Induction of apoptosis in human MDA-MB-453 cells assessed downregulation of bcl2 expression at 0.25 uM at 48 hrs by Western blot analysis; type: functional, cell-based
MDA-MB-453 [21] = experiment: Induction of apoptosis in human MDA-MB-453 cells assessed upregulation of bim expression at 0.25 uM by Western blot analysis; type: functional, cell-based; settings: TDE = time-dependent effect
[22] = biological target: T1, Heat shock protein HSP90 (Homo sapiens) (UniProt P07900+P08238); experiment: Inhibition of HSP90 in human MDA-MB-453 cells assessed as suppression of TNFalpha-induced NFkappaB activation by measuring reduction in relA/p65 translocation to the nucleus at 0.25 uM after 24 hrs by Western blot analysis; type: cell-based
[23] = biological target: T1, Heat shock protein HSP90 (Homo sapiens); experiment: Inhibition of HSP90 in human MDA-MB-453 cells assessed as downmodulation of IKKbeta expression at 0.25 uM up to 48 hrs by Western blot analysis; type: cell-based
[24] = biological target: T1, Heat shock protein HSP90 (Homo sapiens); experiment: Inhibition of HSP90 in human MDA-MB-453 cells assessed as downmodulation of IKKgamma expression at 0.25 uM up to 48 hrs by Western blot analysis; type: cell-based
[25] = biological target: T2, MAP kinase p38 (Homo sapiens) (UniProt O15264+Q15759+Q16539+P53778); experiment: Induction of p38 phosphorylation in human MDA-MB-453 cells at 0.25 uM after 48 hrs in presence of […] by Western blot analysis; type: cell-based
[26] = biological target: T2, MAP kinase p38 (Homo sapiens); experiment: Induction of p38 in human MDA-MB-453 cells assessed as upregulation of Hsp27 Ser82 phosphorylation at Ser82 at 0.25 uM after 2 hrs by Western blot analysis; type: cell-based
[27] = biological target: NF-kappa-B essential modulator (Homo sapiens) (UniProt Q9Y6K9); experiment: Induction of IKKgamma association to hsp27 in human MDA-MB-453 cells at 0.25 uM after 6 hrs by immunoprecipitation and Western analysis; type: cell-based
SW480 = experiment: Antiproliferative activity against human SW480 cells by SRB assay; type: functional, cell-based
MDA-MB-453 [28] = experiment: Effect on Bax protein expression in human MDA-MB-453 cells at 0.25 uM incubated for 6 to 48 hrs by Western blot analysis; type: functional, cell-based

Sequence of NF-kappa-B essential modulator (Homo sapiens) (Q9Y6K9 whole entry): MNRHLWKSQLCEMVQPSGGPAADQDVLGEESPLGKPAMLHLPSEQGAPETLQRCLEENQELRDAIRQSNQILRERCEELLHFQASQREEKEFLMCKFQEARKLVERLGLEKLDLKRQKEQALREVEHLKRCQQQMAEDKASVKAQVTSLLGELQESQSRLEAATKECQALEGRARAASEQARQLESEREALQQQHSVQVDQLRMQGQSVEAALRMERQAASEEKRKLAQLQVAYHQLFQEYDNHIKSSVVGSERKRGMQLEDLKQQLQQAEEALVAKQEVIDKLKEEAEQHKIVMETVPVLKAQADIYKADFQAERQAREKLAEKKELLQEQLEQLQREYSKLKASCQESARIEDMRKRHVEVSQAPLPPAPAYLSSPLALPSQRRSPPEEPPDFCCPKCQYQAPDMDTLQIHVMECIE

O=C(NCc1ccncc1)[C@H]1Cc2ccccc2CN1C(=O)c1cc(Cl)c(O)cc1O
IC50 (A549 [1]): 420 nM
IC50 (MDA-MB-231): 300 nM
Activity [2]: Active
Activity [3]: Dose-dependent effect
inhibition [4]: Dose-dependent effect
inhibition [5]: Dose-dependent effect
inhibition [6]: Dose-dependent effect
inhibition [7]: Dose-dependent effect
inhibition [8]: Dose-dependent effect
inhibition [9]: Dose-dependent effect
inhibition [10]: Dose-dependent effect
Activity (MDA-MB-453 [11]): Active
Activity (SH-SY5Y): Active
Activity (U-251): Active
Activity (HCT-116): Active
Activity (HeLa): Active
Activity (NCI-H1299): Active
Activity (A549 [12]): Active
Activity (HepG2): Active
Activity (SK-OV-3): Active
Activity (PC-3): Active
Activity (MCF7): Active
Activity (MDA-MB-453 [13]): 4.26%
Activity (MDA-MB-453 [14]): 15.11%
Activity (MDA-MB-453 [15]): 18.32%
Activity (MDA-MB-453 [16]): 0.54%
Activity (MDA-MB-453 [17]): Active
Activity (MDA-MB-453 [18]): Active
Activity (MDA-MB-453 [19]): Active
Activity (MDA-MB-453 [20]): Active
Activity (MDA-MB-453 [21]): Tde
inhibition [22]: Active
inhibition [23]: Active
inhibition [24]: Active
Activity [25]: inactive
Activity [26]: Active
Activity [27]: Active
Activity (SW480): Active
Activity (MDA-MB-453 [28]): inactive
